Test results: US20240082222A1, “4-CHLORO-N-[2-[(4-CHLOROPHENYL)METHYL]-3-OXO-1,2,4-THIADIAZOL-5-YL]BENZAMIDE FOR USE IN MEDICINE” (Betagenon AB, priority 2021, published 2024)
“And” between values parts separate entries of the source, which are not always exact repeats. Identical values can stand only once. Counter-ions that a name gives are not always drawn. Like-named read-outs stand apart in the source and are kept apart here.

Test: Pharmacokinetic study in humans, sodium salt tablets, multiple dose (Example 3)
Format: in vivo, human
Description: An open, randomised, parallel-group study was conducted to evaluate the exposure and safety of 4-chloro-N-[2-[(4-chlorophenyl)methyl]-3-oxo-1,2,4-thiadiazol-5-yl]benzamide sodium salt tablets in doses of 212.12 mg and 424.24 mg (equivalent to 200 mg and 400 mg doses of 4-chloro-N-[2-[(4-chlorophenyl)methyl]-3-oxo-1,2,4-thiadiazol-5-yl]benzamide) at steady state in healthy volunteers (hereafter referred to as subjects).
Each “400 mg” tablet contained 424.24 mg of a sodium salt of 4-chloro-N-[2-[(4-chlorophenyl)methyl]-3-oxo-1,2,4-thiadiazol-5-yl]benzamide (Compound of formula II) which corresponds to 400 mg of the parent compound 4-chloro-N-[2-[(4-chlorophenyl)methyl]-3-oxo-1,2,4-thiadiazol-5-yl]benzamide.
Twenty (20) subjects were randomised (1:1) to treatment with either 200 mg (1 tablet of 200 mg) or 400 mg (1 tablet of 400 mg) of the test substance.
A screening visit (Visit 1) was performed within 28 days before randomisation and the start of IMP administration. The subjects arrived at the research clinic on Day 1 (Visit 2), randomised, and received the first administration of the test substance (200 mg or 400 mg as randomised).
The subjects returned to the clinic in the morning of Day 2 (Visit 3) for pre-dose PK sampling and subsequent administration of the test substance.
Before leaving the clinic, the subjects were provided with the test substance for 18 days once daily self-administration at home (Day 3 to Day 20).
After 18 days of home-based self-administration of the test substance, the subjects returned to the clinic in the morning of Day 21 (Visit 5) for pre-dose PK sampling and subsequent administration of the last dose of the test substance. The subjects remained at the clinic for at least 8 hours post-dose for safety assessments and additional PK sampling. In the morning of Day 22 (Visit 6), the subjects came for a last visit to the clinic for a final PK sample 24 hours after the last dose.
Venous blood samples (approximately 5 mL) for the determination of plasma concentrations of 4-chloro-N-[2-[(4-chlorophenyl)methyl]-3-oxo-1,2,4-thiadiazol-5-yl]benzamide after administration of the test substance were collected through an indwelling venous catheter on Days 2, 21 and 22.
The blood samples were collected in pre-labelled Li-Heparin tubes. All the collected blood samples were be centrifuged at 1500 G for 10 minutes to separate plasma within 60 minutes from the sample is drawn. The separated plasma from each blood sample was be divided into 2 aliquots in pre-labelled polypropylene cryotubes (A and B samples, approximately 750 μL in each tube) and frozen at <−70° C.
Samples for determination of plasma concentrations of 4-chloro-N-[2-[(4-chlorophenyl)methyl]-3-oxo-1,2,4-thiadiazol-5-yl]benzamide were analysed by Lablytica Life Science AB, Uppsala, Sweden by means of a validated LS-MS/MS method.
The data of plasma concentration to respective time points for the analyte (4-chloro-N-[2-[(4-chlorophenyl)methyl]-3-oxo-1,2,4-thiadiazol-5-yl]benzamide) were used for the pharmacokinetic analysis. Pharmacokinetic analysis was performed using non-compartmental analysis (NCA) module of Phoenix WinNonlin 8.1 software to determine the following pharmacokinetic parameters after multiple dose administration of test substance.
Primary endpoint: • Cmax, AUC0-last, Tmax at steady state Day 21 in each dose group.

[1] = 200 mg Dose Group, tablet once daily, Day 21, individual subjects, listed as O304 Na salt
[2] = 212 mg sodium salt in tablet form
[3] = 400 mg Dose Group, tablet once daily, Day 21, individual subjects, listed as O304 Na salt

## O=C(Nc1nc(=O)n(Cc2ccc(Cl)cc2)s1)c1ccc(Cl)cc1 [Compound of formula II, sodium salt of 4-chloro-N-[2-[(4-chlorophenyl)methyl]-3-oxo-1,2,4-thiadiazol-5-yl]benzamide]
200 mg Dose Group, tablet once daily, Day 21, Mean
  Tlast: 24.01 h
200 mg Dose Group, tablet once daily, Day 21, Median
  Tlast: 24.0 h
[1]
  Clast: 80.1 µg/mL and 109 µg/mL and 144 µg/mL and 51.7 µg/mL and 76.9 µg/mL and 62.3 µg/mL and 65.1 µg/mL and 81.3 µg/mL and 53.4 µg/mL
  Tlast: 24.0 h (8×) and 24.1 h
  Tmax: 24.0 h and 0.00 h and 2.00 h and 4.00 h
[2]
  increase in systemic accumulation from Day 1 to Day 21: approximately seven-fold
  increase in systemic exposure, tablet compared to capsules containing 200 mg: up to two-fold
400 mg Dose Group, tablet once daily, Day 21, Mean
  Tlast: 24.07 h
400 mg Dose Group, tablet once daily, Day 21, Median
  Tlast: 24.0 h
[3]
  AUClast: 4790 µg·h/mL and 3600 µg·h/mL and 2450 µg·h/mL and 2950 µg·h/mL and 3550 µg·h/mL and 2800 µg·h/mL and 2460 µg·h/mL
  Clast: 116 µg/mL and 201 µg/mL and 151 µg/mL and 96.7 µg/mL and 135 µg/mL and 144 µg/mL and 111 µg/mL and 106 µg/mL and 100 µg/mL
  Cmax: 201 µg/mL and 169 µg/mL and 106 µg/mL and 135 µg/mL and 168 µg/mL and 124 µg/mL and 105 µg/mL
  Tlast: 24.0 h (6×) and 24.4 h and 24.1 h (2×)
  Tmax: 24.4 h and 4.00 h and 8.02 h and 24.1 h and 24.0 h
424 mg sodium salt in tablet form
  increase in systemic accumulation from Day 1 to Day 21: approximately five-fold
human, plasma, oral, 200 mg, 200 mg Dose Group, tablet once daily, Day 21, Mean
  AUC(0-t): 1940 µg·h/mL
human, plasma, oral, 200 mg, 200 mg Dose Group, tablet once daily, Day 21, Mean, read-out: Clast
  concentration at 24 h: 80.4 µg/mL
human, plasma, oral, 200 mg, 200 mg Dose Group, tablet once daily, Day 21, Mean, read-out: Cmax
  Cmax: 86.8 µg/mL
human, plasma, oral, 200 mg, 200 mg Dose Group, tablet once daily, Day 21, Mean, read-out: Tmax
  Tmax: 10.9 h
human, plasma, oral, 200 mg, 200 mg Dose Group, tablet once daily, Day 21, Median
  AUC(0-t): 1720 µg·h/mL
human, plasma, oral, 200 mg, 200 mg Dose Group, tablet once daily, Day 21, Median, read-out: Clast
  concentration at 24 h: 76.9 µg/mL
human, plasma, oral, 200 mg, 200 mg Dose Group, tablet once daily, Day 21, Median, read-out: Cmax
  Cmax: 77.1 µg/mL
human, plasma, oral, 200 mg, 200 mg Dose Group, tablet once daily, Day 21, Median, read-out: Tmax
  Tmax: 8 h
human, plasma, oral, 200 mg, 200 mg dose group (212.12 mg sodium salt tablet once daily), 24 h after dose of Day 1, read-out: Clast at 24 hours, Mean
  concentration at 24 h: 11.4 µg/mL
human, plasma, oral, 200 mg, 200 mg dose group (212.12 mg sodium salt tablet once daily), 24 h after dose of Day 1, read-out: Clast at 24 hours, Median
  concentration at 24 h: 11.2 µg/mL
human, plasma, oral, 200 mg, 200 mg dose group (212.12 mg sodium salt tablet once daily), 24 h after dose of Day 21, read-out: Clast at 24 hours, Mean
  concentration at 24 h: 80.4 µg/mL
human, plasma, oral, 200 mg, 200 mg dose group (212.12 mg sodium salt tablet once daily), 24 h after dose of Day 21, read-out: Clast at 24 hours, Median
  concentration at 24 h: 76.9 µg/mL
human, plasma, oral, 400 mg, 400 mg Dose Group, tablet once daily, Day 21, Mean
  AUC(0-t): 3110 µg·h/mL
human, plasma, oral, 400 mg, 400 mg Dose Group, tablet once daily, Day 21, Mean, read-out: Clast
  concentration at 24 h: 129 µg/mL
human, plasma, oral, 400 mg, 400 mg Dose Group, tablet once daily, Day 21, Mean, read-out: Cmax
  Cmax: 138 µg/mL
human, plasma, oral, 400 mg, 400 mg Dose Group, tablet once daily, Day 21, Mean, read-out: Tmax
  Tmax: 11.2 h
human, plasma, oral, 400 mg, 400 mg Dose Group, tablet once daily, Day 21, Median
  AUC(0-t): 2930 µg·h/mL
human, plasma, oral, 400 mg, 400 mg Dose Group, tablet once daily, Day 21, Median, read-out: Clast
  concentration at 24 h: 116 µg/mL
human, plasma, oral, 400 mg, 400 mg Dose Group, tablet once daily, Day 21, Median, read-out: Cmax
  Cmax: 132 µg/mL
human, plasma, oral, 400 mg, 400 mg Dose Group, tablet once daily, Day 21, Median, read-out: Tmax
  Tmax: 4.02 h
human, plasma, oral, 400 mg, 400 mg Dose Group, tablet once daily, Day 21, individual subjects
  AUC(0-t): 2930 µg·h/mL
human, plasma, oral, 400 mg, 400 mg Dose Group, tablet once daily, Day 21, individual subjects, read-out: Cmax
  Cmax: 132 µg/mL
human, plasma, oral, 400 mg, 400 mg dose group (424.24 mg sodium salt tablet once daily), 24 h after dose of Day 1, read-out: Clast at 24 hours, Mean
  concentration at 24 h: 24.9 µg/mL
human, plasma, oral, 400 mg, 400 mg dose group (424.24 mg sodium salt tablet once daily), 24 h after dose of Day 1, read-out: Clast at 24 hours, Median
  concentration at 24 h: 21.5 µg/mL
human, plasma, oral, 400 mg, 400 mg dose group (424.24 mg sodium salt tablet once daily), 24 h after dose of Day 21, read-out: Clast at 24 hours, Mean
  concentration at 24 h: 129 µg/mL
human, plasma, oral, 400 mg, 400 mg dose group (424.24 mg sodium salt tablet once daily), 24 h after dose of Day 21, read-out: Clast at 24 hours, Median
  concentration at 24 h: 116 µg/mL
Repeated dosing of 212 mg in the form of a tablet
  peak blood plasma concentration: ≥ 85 µg/mL
tablets, once daily
  accumulation in the blood plasma after repeat dosing: substantial accumulation
